Reference: the supplement of paper PMC10307832

Tests used:
Test in all cases: relative viability (nuclei count vs DMSO), 5 days (fraction); higher = more cells survive
[1] = test system: H3255
How it was run: (§1)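 Cells from lung cancer lines were seeded into 1536-well plates and, one day later, dosed by pin tool. Treatments were either a single drug or a fixed dose of an anchor drug with five library-drug doses (not always all listed) in √10 steps. After 5 days, nuclei were stained in a one-step fixation (final 0.05% Triton X-100, 1% formaldehyde, 1 ug/ml Hoechst) and counted on 4× images, and relative viability is the treated-to-vehicle nuclei ratio, as the median of duplicate plates.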

[2] = test system: HCC-827
How it was run: as §1

[3] = test system: NCI-H1915
How it was run: as §1

[4] = test system: LC-2-ad
How it was run: as §1

[5] = test system: NCI-H1792
How it was run: as §1

[6] = test system: EMC-BAC-2
How it was run: as §1

[7] = test system: HCC-15
How it was run: as §1

[8] = test system: PC-14
How it was run: as §1

[9] = test system: EKVX
How it was run: as §1

[10] = test system: LCLC-97TM1
How it was run: as §1

[11] = test system: NCI-H23
How it was run: as §1

[12] = test system: ChaGo-K-1
How it was run: as §1

[13] = test system: NCI-H1993
How it was run: as §1

[14] = test system: SK-LU-1
How it was run: as §1

[15] = test system: NCI-H460
How it was run: as §1

[16] = test system: NCI-H322M
How it was run: as §1

[17] = test system: EPLC-272H
How it was run: as §1

[18] = test system: NCI-H661
How it was run: as §1

[19] = test system: NCI-H1944
How it was run: as §1

[20] = test system: NCI-H1793
How it was run: as §1

## COCC1(CO)C(=O)C2CCN1CC2 (stereo not given) [PRIMA-1MET] + CC(C)C[C@H](NC(=O)[C@H](Cc1ccccc1)NC(=O)c1cnccn1)B(O)O [Bortezomib] (partner 0.002 µM)
[1]; first compound 0.2 µM
  relative viability: 0.814
[1]; first compound 0.6325 µM
  relative viability: 0.461
[1]; first compound 2 µM
  relative viability: 0.771
[1]; first compound 6.325 µM
  relative viability: 0.815
[1]; first compound 20 µM
  relative viability: 0.69
[2]; first compound 0.2 µM
  relative viability: 1.13
[2]; first compound 0.6325 µM
  relative viability: 1.01
[2]; first compound 2 µM
  relative viability: 0.971
[2]; first compound 6.325 µM
  relative viability: 1.1
[2]; first compound 20 µM
  relative viability: 0.956
[3]; first compound 0.2 µM
  relative viability: 1.07
[3]; first compound 0.6325 µM
  relative viability: 0.695
[3]; first compound 2 µM
  relative viability: 0.918
[3]; first compound 6.325 µM
  relative viability: 0.764
[3]; first compound 20 µM
  relative viability: 0.956
[4]; first compound 0.2 µM
  relative viability: 1.11
[4]; first compound 0.6325 µM
  relative viability: 0.981
[4]; first compound 2 µM
  relative viability: 0.695
[4]; first compound 6.325 µM
  relative viability: 1.07
[4]; first compound 20 µM
  relative viability: 0.91
[5]; first compound 0.2 µM
  relative viability: 0.959
[5]; first compound 0.6325 µM
  relative viability: 0.851
[5]; first compound 2 µM
  relative viability: 0.937
[5]; first compound 6.325 µM
  relative viability: 1
[5]; first compound 20 µM
  relative viability: 0.939
[6]; first compound 0.2 µM
  relative viability: 1.15
[6]; first compound 0.6325 µM
  relative viability: 1.02
[6]; first compound 2 µM
  relative viability: 0.952
[6]; first compound 6.325 µM
  relative viability: 1.03
[6]; first compound 20 µM
  relative viability: 1.08
[7]; first compound 0.2 µM
  relative viability: 1.02
[7]; first compound 0.6325 µM
  relative viability: 0.902
[7]; first compound 2 µM
  relative viability: 1.12
[7]; first compound 6.325 µM
  relative viability: 0.988
[7]; first compound 20 µM
  relative viability: 0.583
[8]; first compound 0.2 µM
  relative viability: 0.98
[8]; first compound 0.6325 µM
  relative viability: 0.722
[8]; first compound 2 µM
  relative viability: 0.856
[8]; first compound 6.325 µM
  relative viability: 1.08
[8]; first compound 20 µM
  relative viability: 0.884
[9]; first compound 0.2 µM
  relative viability: 1.16
[9]; first compound 0.6325 µM
  relative viability: 0.851
[9]; first compound 2 µM
  relative viability: 0.943
[9]; first compound 6.325 µM
  relative viability: 1.06
[9]; first compound 20 µM
  relative viability: 0.845
[10]; first compound 0.2 µM
  relative viability: 0.526
[10]; first compound 0.6325 µM
  relative viability: 0.428
[10]; first compound 2 µM
  relative viability: 0.533
[10]; first compound 6.325 µM
  relative viability: 0.47
[10]; first compound 20 µM
  relative viability: 0.0592
[11]; first compound 0.2 µM
  relative viability: 0.966
[11]; first compound 0.6325 µM
  relative viability: 0.724
[11]; first compound 2 µM
  relative viability: 0.944
[11]; first compound 6.325 µM
  relative viability: 1.05
[11]; first compound 20 µM
  relative viability: 0.116
[12]; first compound 0.2 µM
  relative viability: 1.21
[12]; first compound 0.6325 µM
  relative viability: 0.83
[12]; first compound 2 µM
  relative viability: 1.28
[12]; first compound 6.325 µM
  relative viability: 0.988
[12]; first compound 20 µM
  relative viability: 0.32
[13]; first compound 0.2 µM
  relative viability: 1.21
[13]; first compound 0.6325 µM
  relative viability: 1.07
[13]; first compound 2 µM
  relative viability: 1.94
[13]; first compound 6.325 µM
  relative viability: 1.02
[13]; first compound 20 µM
  relative viability: 1.24
[14]; first compound 0.2 µM
  relative viability: 1.42
[14]; first compound 0.6325 µM
  relative viability: 1.07
[14]; first compound 6.325 µM
  relative viability: 1.2
[14]; first compound 20 µM
  relative viability: 0.617
[15]; first compound 0.2 µM
  relative viability: 1.38
[15]; first compound 0.6325 µM
  relative viability: 0.967
[15]; first compound 2 µM
  relative viability: 1.05
[15]; first compound 6.325 µM
  relative viability: 0.581
[15]; first compound 20 µM
  relative viability: 0.0059
[16]; first compound 0.2 µM
  relative viability: 1.3
[16]; first compound 6.325 µM
  relative viability: 1.29
[16]; first compound 20 µM
  relative viability: 1.06
[17]; first compound 0.2 µM
  relative viability: 1.03
[17]; first compound 0.6325 µM
  relative viability: 0.847
[17]; first compound 2 µM
  relative viability: 0.966
[17]; first compound 6.325 µM
  relative viability: 1.2
[17]; first compound 20 µM
  relative viability: 0.686
[18]; first compound 0.2 µM
  relative viability: 0.846
[18]; first compound 0.6325 µM
  relative viability: 0.69
[18]; first compound 6.325 µM
  relative viability: 0.817
[18]; first compound 20 µM
  relative viability: 0.623

## COCC1(CO)C(=O)C2CCN1CC2 (stereo not given) [PRIMA-1MET] + Cc1nc(NC(=O)N2CCC[C@H]2C(N)=O)sc1-c1ccnc(C(C)(C)C(F)(F)F)c1 [Alpelisib] (partner 2 µM)
[1]; first compound 0.2 µM
  relative viability: 0.845
[1]; first compound 0.6325 µM
  relative viability: 0.547
[1]; first compound 2 µM
  relative viability: 0.574
[1]; first compound 6.325 µM
  relative viability: 0.793
[1]; first compound 20 µM
  relative viability: 0.666
[2]; first compound 0.2 µM
  relative viability: 1.01
[2]; first compound 0.6325 µM
  relative viability: 0.896
[2]; first compound 2 µM
  relative viability: 0.877
[2]; first compound 6.325 µM
  relative viability: 0.974
[2]; first compound 20 µM
  relative viability: 0.948
[3]; first compound 0.2 µM
  relative viability: 1.15
[3]; first compound 0.6325 µM
  relative viability: 0.861
[3]; first compound 2 µM
  relative viability: 0.853
[3]; first compound 6.325 µM
  relative viability: 1.01
[3]; first compound 20 µM
  relative viability: 0.974
[4]; first compound 0.2 µM
  relative viability: 0.909
[4]; first compound 0.6325 µM
  relative viability: 0.931
[4]; first compound 2 µM
  relative viability: 1.01
[4]; first compound 6.325 µM
  relative viability: 0.909
[4]; first compound 20 µM
  relative viability: 0.695
[5]; first compound 0.2 µM
  relative viability: 0.708
[5]; first compound 0.6325 µM
  relative viability: 0.557
[5]; first compound 2 µM
  relative viability: 0.456
[5]; first compound 6.325 µM
  relative viability: 0.754
[5]; first compound 20 µM
  relative viability: 0.687
[6]; first compound 0.2 µM
  relative viability: 0.82
[6]; first compound 0.6325 µM
  relative viability: 0.719
[6]; first compound 2 µM
  relative viability: 0.666
[6]; first compound 6.325 µM
  relative viability: 0.775
[6]; first compound 20 µM
  relative viability: 0.759
[7]; first compound 0.2 µM
  relative viability: 1.01
[7]; first compound 0.6325 µM
  relative viability: 0.708
[7]; first compound 2 µM
  relative viability: 0.81
[7]; first compound 6.325 µM
  relative viability: 0.999
[7]; first compound 20 µM
  relative viability: 0.643
[8]; first compound 0.2 µM
  relative viability: 0.839
[8]; first compound 0.6325 µM
  relative viability: 1.03
[8]; first compound 2 µM
  relative viability: 0.926
[8]; first compound 6.325 µM
  relative viability: 1.07
[8]; first compound 20 µM
  relative viability: 0.905
[9]; first compound 0.2 µM
  relative viability: 0.978
[9]; first compound 0.6325 µM
  relative viability: 0.966
[9]; first compound 2 µM
  relative viability: 0.638
[9]; first compound 6.325 µM
  relative viability: 0.911
[9]; first compound 20 µM
  relative viability: 0.778
[10]; first compound 0.2 µM
  relative viability: 0.277
[10]; first compound 2 µM
  relative viability: 0.22
[10]; first compound 6.325 µM
  relative viability: 0.232
[10]; first compound 20 µM
  relative viability: 0.0607
[11]; first compound 0.2 µM
  relative viability: 0.793
[11]; first compound 0.6325 µM
  relative viability: 0.583
[11]; first compound 2 µM
  relative viability: 0.555
[11]; first compound 6.325 µM
  relative viability: 0.669
[11]; first compound 20 µM
  relative viability: 0.111
[13]; first compound 0.2 µM
  relative viability: 0.724
[13]; first compound 0.6325 µM
  relative viability: 0.706
[13]; first compound 2 µM
  relative viability: 0.628
[13]; first compound 6.325 µM
  relative viability: 0.768
[13]; first compound 20 µM
  relative viability: 0.664
[19]; first compound 0.2 µM
  relative viability: 1.01
[19]; first compound 0.6325 µM
  relative viability: 0.719
[19]; first compound 6.325 µM
  relative viability: 0.849
[19]; first compound 20 µM
  relative viability: 0.823
[14]; first compound 0.2 µM
  relative viability: 1.11
[14]; first compound 0.6325 µM
  relative viability: 0.918
[14]; first compound 2 µM
  relative viability: 1.04
[14]; first compound 6.325 µM
  relative viability: 0.99
[14]; first compound 20 µM
  relative viability: 0.109
[15]; first compound 0.2 µM
  relative viability: 0.571
[15]; first compound 0.6325 µM
  relative viability: 0.358
[15]; first compound 2 µM
  relative viability: 0.411
[15]; first compound 6.325 µM
  relative viability: 0.0066
[15]; first compound 20 µM
  relative viability: 0.0038
[20]; first compound 0.2 µM
  relative viability: 0.953
[20]; first compound 0.6325 µM
  relative viability: 0.676
[20]; first compound 6.325 µM
  relative viability: 0.736
[20]; first compound 20 µM
  relative viability: 0.707
[16]; first compound 0.2 µM
  relative viability: 0.942
[16]; first compound 6.325 µM
  relative viability: 0.907
[16]; first compound 20 µM
  relative viability: 0.671
[17]; first compound 0.2 µM
  relative viability: 1.06
[17]; first compound 0.6325 µM
  relative viability: 0.784
[17]; first compound 2 µM
  relative viability: 0.869
[17]; first compound 6.325 µM
  relative viability: 0.869
[17]; first compound 20 µM
  relative viability: 0.667
[18]; first compound 0.2 µM
  relative viability: 0.617
[18]; first compound 0.6325 µM
  relative viability: 0.581
[18]; first compound 6.325 µM
  relative viability: 0.602
[18]; first compound 20 µM
  relative viability: 0.297
